Measurements: ChEMBL document CHEMBL5104170, “Discovery of vimseltinib (DCC-3014), a highly selective CSF1R switch-control kinase inhibitor, in clinical development for the treatment of Tenosynovial Giant Cell Tumor (TGCT)” (Bioorg Med Chem Lett, 2022)
Values after ≈ are worked out from the molar mass of the structure shown.

Legend:
[1] = Inhibition of His-Glu tagged recombinant human KIT Q694-T753 deletion mutant (565 to 935 residues) measured by spectrophotometric analysis
NFS-60 = test: cells; conditions: Mus musculus, NFS-60, 72 h
Description: Antiproliferative activity against CSF1-treated mouse NFS-60 cells measured after 72 hrs by resazurin method

cells [2] = conditions: Homo sapiens, Osteoclast
Description: Inhibition of RANKL-induced human osteoclast precursor cells differentiation in presence of human CSF1 and measured by tartrate-resistant acid phosphatase activity assay

[3] = Plasma concentration in DBA/1 mouse at 7.5 mg/kg, po administered once daily for 6 days and measured at 24 hrs; type: ADME, organism-based; conditions: time 6 day
[4] = In vivo inhibition of CSF1R in CSF1-stimulated DBA/1 mouse assessed as modulation of cFOS mRNA at 7.5 mg/kg, po administered once daily for 6 days followed by CSF1 administration through intravenously and measured at 8 hrs by RT-PCR method; type: functional; conditions: DBA/1, 144 h, time 6 day
[5] = Plasma concentration in DBA/1 mouse at 7.5 mg/kg, po administered once daily for 6 days and measured at 6 hrs; type: ADME, organism-based; conditions: time 6 day
[6] = In vivo inhibition of CSF1R in CSF1-stimulated DBA/1 mouse assessed as modulation of cFOS mRNA at 7.5 mg/kg, po administered once daily for 6 days followed by CSF1 administration through intravenously and measured at 12 hrs by RT-PCR method; type: functional; conditions: DBA/1, 144 h, time 6 day
[7] = In vivo inhibition of CSF1R in CSF1-stimulated DBA/1 mouse assessed as modulation of cFOS mRNA at 7.5 mg/kg, po administered once daily for 6 days followed by CSF1 administration through intravenously and measured at 4 hrs by RT-PCR method; type: functional; conditions: DBA/1, 144 h, time 6 day
[8] = Plasma concentration in DBA/1 mouse at 7.5 mg/kg, po administered once daily for 6 days and measured at 8 hrs; type: ADME, organism-based; conditions: time 6 day
[9] = Plasma concentration in DBA/1 mouse at 7.5 mg/kg, po administered once daily for 6 days and measured at 12 hrs; type: ADME, organism-based; conditions: time 6 day
[10] = In vivo inhibition of CSF1R in CSF1-stimulated DBA/1 mouse assessed as modulation of cFOS mRNA at 7.5 mg/kg, po administered once daily for 6 days followed by CSF1 administration through intravenously and measured at 2 hrs by RT-PCR method; type: functional; conditions: DBA/1, 144 h, time 6 day
[11] = Plasma concentration in DBA/1 mouse at 7.5 mg/kg, po administered once daily for 6 days and measured at 2 hrs; type: ADME, organism-based; conditions: time 6 day
[12] = In vivo inhibition of CSF1R in CSF1-stimulated DBA/1 mouse assessed as modulation of cFOS mRNA at 7.5 mg/kg, po administered once daily for 6 days followed by CSF1 administration through intravenously and measured at 24 hrs by RT-PCR method; type: functional; conditions: DBA/1, 144 h, time 6 day
[13] = In vivo inhibition of CSF1R in CSF1-stimulated DBA/1 mouse assessed as modulation of cFOS mRNA at 7.5 mg/kg, po administered once daily for 6 days followed by CSF1 administration through intravenously and measured at 6 hrs by RT-PCR method; type: functional; conditions: DBA/1, 144 h, time 6 day
[14] = Plasma concentration in DBA/1 mouse at 7.5 mg/kg, po administered once daily for 6 days and measured at 4 hrs; type: ADME, organism-based; conditions: time 6 day
[15] = In vivo inhibition of CSF1R in CSF1-stimulated DBA/1 mouse assessed as modulation of cFOS mRNA at 7.5 mg/kg, po administered once daily for 6 days followed by CSF1 administration through intravenously and measured at 18 hrs by RT-PCR method; type: functional; conditions: DBA/1, 144 h, time 6 day
[16] = Plasma concentration in DBA/1 mouse at 7.5 mg/kg, po administered once daily for 6 days and measured at 18 hrs; type: ADME, organism-based; conditions: time 6 day
[17] = Aqueous solubility of compound at pH 7.4; type: physicochemical
[18] = Metabolic stability in rat liver microsomes assessed as compound remaining at 60 mins; type: ADME, Microsome; conditions: read-out: Stability
[19] = Cmax in rat at 10 mg/kg, po; type: ADME, organism-based; parameters: dose 10 mg/kg, route po; conditions: in vivo
[20] = Half-life in dog at 10 mg/kg, po; type: ADME, organism-based, Canis lupus familiaris; conditions: in vivo
[21] = Clearance in rat at 10 mg/kg, po; type: ADME, organism-based; conditions: in vivo
[22] = Half-life in rat at 10 mg/kg, po; type: ADME, organism-based; conditions: in vivo
[23] = Metabolic stability in dog liver microsomes assessed as compound remaining at 60 mins; type: ADME, Canis lupus familiaris, Microsome; conditions: read-out: Stability
[24] = Metabolic stability in human liver microsomes assessed as compound remaining at 60 mins; type: ADME, Microsome; conditions: read-out: Stability
[25] = biological target: Mast/stem cell growth factor receptor Kit (Homo sapiens, UniProt P10721); test: Inhibition of KIT (unknown origin) in presence of 4 mM ATP measured by cell-based spectrophotometric assay
Mast/stem cell growth factor receptor Kit, sequence (P10721 whole entry): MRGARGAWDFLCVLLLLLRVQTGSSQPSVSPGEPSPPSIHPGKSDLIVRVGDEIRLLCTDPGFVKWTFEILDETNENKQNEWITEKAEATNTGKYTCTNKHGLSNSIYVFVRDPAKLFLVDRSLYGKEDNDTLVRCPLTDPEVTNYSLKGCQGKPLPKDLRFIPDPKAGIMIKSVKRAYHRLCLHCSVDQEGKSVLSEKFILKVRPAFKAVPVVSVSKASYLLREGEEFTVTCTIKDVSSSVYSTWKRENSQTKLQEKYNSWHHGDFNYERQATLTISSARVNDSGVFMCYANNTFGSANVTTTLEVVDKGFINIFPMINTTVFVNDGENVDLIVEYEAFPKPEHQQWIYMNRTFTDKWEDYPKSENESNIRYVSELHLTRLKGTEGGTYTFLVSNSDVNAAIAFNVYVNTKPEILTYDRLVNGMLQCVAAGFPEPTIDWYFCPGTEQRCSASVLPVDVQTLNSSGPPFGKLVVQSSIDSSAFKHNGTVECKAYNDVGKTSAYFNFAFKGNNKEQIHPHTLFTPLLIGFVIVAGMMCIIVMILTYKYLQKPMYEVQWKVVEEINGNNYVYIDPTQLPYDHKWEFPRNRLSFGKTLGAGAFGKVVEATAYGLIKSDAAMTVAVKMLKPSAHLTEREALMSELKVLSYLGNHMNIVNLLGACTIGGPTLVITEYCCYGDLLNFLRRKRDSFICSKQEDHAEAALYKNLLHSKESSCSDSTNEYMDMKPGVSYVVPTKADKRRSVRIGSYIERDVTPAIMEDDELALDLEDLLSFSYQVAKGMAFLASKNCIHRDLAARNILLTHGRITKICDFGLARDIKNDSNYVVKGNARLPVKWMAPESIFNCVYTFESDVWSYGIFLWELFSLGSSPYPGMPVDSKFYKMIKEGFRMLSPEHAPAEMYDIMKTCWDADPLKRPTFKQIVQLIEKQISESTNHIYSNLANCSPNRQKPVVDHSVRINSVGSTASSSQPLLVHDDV

[26] = Plasma protein binding in rat; type: ADME, cell-free; conditions: read-out: PPB (converted)
[27] = Volume of distribution in dog at 10 mg/kg, po; type: ADME, organism-based, Canis lupus familiaris; conditions: in vivo
[28] = Plasma protein binding in dog; type: ADME, cell-free, Canis lupus familiaris; conditions: read-out: PPB (converted)
[29] = Metabolic stability in mouse liver microsomes assessed as compound remaining at 60 mins; type: ADME, Microsome; conditions: read-out: Stability
[30] = Clearance in dog at 10 mg/kg, po; type: ADME, organism-based, Canis lupus familiaris; conditions: in vivo
[31] = Volume of distribution in rat at 10 mg/kg, po; type: ADME, organism-based; conditions: in vivo
[32] = Cmax in dog at 10 mg/kg, po; type: ADME, organism-based, Canis lupus familiaris; parameters: dose 10 mg/kg, route po; conditions: in vivo
cells [33] = conditions: Homo sapiens
Description: Inhibition of ABL (unknown origin) in presence of 4 mM ATP measured by cell-based spectrophotometric assay

[34] = Permeability across apical to basolateral side in human Caco-2 cells; type: ADME, cell-based; conditions: read-out: permeability
[35] = AUC (0 to 24 hrs) in dog at 10 mg/kg, po; type: ADME, organism-based, Canis lupus familiaris; parameters: time < 24 hr, dose 10 mg/kg, route po; conditions: in vivo
[36] = AUC (0 to 24 hrs) in rat at 10 mg/kg, po; type: ADME, organism-based; parameters: time < 24 hr, dose 10 mg/kg, route po; conditions: in vivo
[37] = Tmax in dog at 10 mg/kg, po; type: ADME, organism-based, Canis lupus familiaris; conditions: in vivo
[38] = Oral bioavailability in rat at 10 mg/kg; type: ADME, organism-based; conditions: in vivo
hERG (KCNH2) = hERG (KCNH2) (Homo sapiens, UniProt Q12809); test: Inhibition of hERG measured by fluorescence polarization assay; type: toxicity
hERG (KCNH2), sequence (Q12809 whole entry): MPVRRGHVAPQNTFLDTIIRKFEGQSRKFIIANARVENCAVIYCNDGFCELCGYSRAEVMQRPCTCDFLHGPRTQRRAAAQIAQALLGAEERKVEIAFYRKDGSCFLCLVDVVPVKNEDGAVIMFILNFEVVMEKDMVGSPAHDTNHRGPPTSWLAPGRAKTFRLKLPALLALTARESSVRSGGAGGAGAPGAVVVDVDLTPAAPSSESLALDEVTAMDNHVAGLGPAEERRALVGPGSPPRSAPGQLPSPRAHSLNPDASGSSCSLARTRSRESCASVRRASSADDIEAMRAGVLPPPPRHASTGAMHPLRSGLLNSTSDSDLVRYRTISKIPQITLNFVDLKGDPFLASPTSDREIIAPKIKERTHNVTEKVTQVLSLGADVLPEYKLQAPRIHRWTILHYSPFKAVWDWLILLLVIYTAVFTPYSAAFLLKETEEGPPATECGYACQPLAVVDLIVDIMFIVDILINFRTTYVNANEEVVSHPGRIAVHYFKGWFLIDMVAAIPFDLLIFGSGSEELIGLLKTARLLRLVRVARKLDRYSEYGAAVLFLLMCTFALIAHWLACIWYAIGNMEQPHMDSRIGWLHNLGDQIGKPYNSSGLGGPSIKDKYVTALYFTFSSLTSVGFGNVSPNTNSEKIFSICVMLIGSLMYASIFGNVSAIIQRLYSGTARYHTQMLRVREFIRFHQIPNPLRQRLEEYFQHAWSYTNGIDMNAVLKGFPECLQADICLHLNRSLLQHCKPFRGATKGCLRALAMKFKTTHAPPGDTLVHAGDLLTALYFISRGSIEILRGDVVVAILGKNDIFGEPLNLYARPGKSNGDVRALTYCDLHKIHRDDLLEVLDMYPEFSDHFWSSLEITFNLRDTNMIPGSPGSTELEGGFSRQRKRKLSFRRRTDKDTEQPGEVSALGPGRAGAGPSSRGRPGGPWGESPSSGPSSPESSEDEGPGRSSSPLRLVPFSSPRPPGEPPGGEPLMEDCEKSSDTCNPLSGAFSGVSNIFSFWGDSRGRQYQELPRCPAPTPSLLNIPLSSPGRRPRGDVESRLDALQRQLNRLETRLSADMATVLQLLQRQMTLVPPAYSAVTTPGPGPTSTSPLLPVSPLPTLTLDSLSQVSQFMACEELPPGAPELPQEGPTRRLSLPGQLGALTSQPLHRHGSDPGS

[39] = Plasma protein binding in human; type: ADME, cell-free; conditions: read-out: PPB (converted)
[40] = Plasma protein binding in mouse; type: ADME, cell-free; conditions: read-out: PPB (converted)
[41] = Tmax in rat at 10 mg/kg, po; type: ADME, organism-based; conditions: in vivo
[42] = Oral bioavailability in dog at 10 mg/kg; type: ADME, organism-based, Canis lupus familiaris; conditions: in vivo

Cc1nc(-c2cnc(N3CCCC3)[nH]c2=O)ccc1Oc1ccnc(-c2cnn(C)c2)c1
IC50 [1]: > 3300 nM
IC50 (NFS-60): 56 nM

Cc1nc(-c2cnc(NC3CC3)n(C)c2=O)ccc1Oc1ccnc(-c2cnn(C)c2)c1
IC50 (cells [2]): 7.4 nM
IC50 [1]: 1700 nM
IC50 (NFS-60): 18 nM

Cc1nc(-c2cnc(NC(C)C)[nH]c2=O)ccc1Oc1ccnc(-c2cnn(C)c2)c1
concentration at 144 h [3]: 17 ng/mL
IC50 (cells [2]): 13 nM
inhibition in vivo at 7.5 mg/kg [4]: 47%
concentration at 144 h [5]: 451 ng/mL
inhibition in vivo at 7.5 mg/kg [6]: 14%
inhibition in vivo at 7.5 mg/kg [7]: 55%
concentration at 144 h [8]: 360 ng/mL
concentration at 144 h [9]: 20 ng/mL
inhibition in vivo at 7.5 mg/kg [10]: 36%
concentration at 144 h [11]: 696 ng/mL
inhibition in vivo at 7.5 mg/kg [12]: 16%
inhibition in vivo at 7.5 mg/kg [13]: 22%
concentration at 144 h [14]: 563 ng/mL
IC50 [1]: 322 nM
inhibition in vivo at 7.5 mg/kg [15]: 11%
IC50 (NFS-60): 3.1 nM
concentration at 144 h [16]: 21 ng/mL

Cc1nc(-c2cnc(N3CCCCC3)[nH]c2=O)ccc1Oc1ccnc(-c2cnn(C)c2)c1
IC50 [1]: > 3300 nM
IC50 (NFS-60): 30 nM

CC(=O)Nc1cc(Oc2ccc(-c3cnc(NC(C)C)[nH]c3=O)nc2C)ccn1
IC50 [1]: 277 nM
IC50 (NFS-60): 193 nM

CNc1ncc(-c2ccc(Oc3ccnc(-c4cnn(C)c4)c3)c(C)n2)c(=O)[nH]1
IC50 [1]: 257 nM
IC50 (NFS-60): 1300 nM

CCNc1ncc(-c2ccc(Oc3ccnc(-n4cnc(C)c4)c3)c(C)n2)c(=O)[nH]1
IC50 [1]: 1300 nM
IC50 (NFS-60): 2800 nM

CCNc1ncc(-c2ccc(Oc3ccnc(-c4ccc(C)nc4)c3)c(C)n2)c(=O)[nH]1
IC50 [1]: 1500 nM
IC50 (NFS-60): 1200 nM

CNC(=O)c1cc(Oc2ccc(-c3cnc(NC(C)C)[nH]c3=O)nc2)ccn1
IC50 [1]: 7400 nM
IC50 (NFS-60): 127 nM

Cc1nc(-c2cnc(NC(C)C)n(C)c2=O)ccc1Oc1ccnc(-c2cnn(C)c2)c1 [VIMSELTINIB]
solubility [17]: 200 µM (≈ 86.3 µg/mL)
concentration at 144 h [3]: 1380 ng/mL
IC50 (cells [2]): 9.3 nM
remaining at 1 h [18]: 95.2%
Cmax [19]: 3740 nM
half-life [20]: 10.6 h
CL [21]: 0.5 mL/min/kg
t1/2 [22]: 19.8 h
remaining at 1 h [23]: 95.2%
remaining at 1 h [24]: 100%
IC50 [25]: 1600 nM
inhibition in vivo at 7.5 mg/kg [4]: 92%
fraction unbound [26]: 0.006
Vd [27]: 1.33 L/kg
fraction unbound [28]: 0.033
concentration at 144 h [5]: 2360 ng/mL
inhibition in vivo at 7.5 mg/kg [6]: 90%
remaining at 1 h [29]: 94.8%
inhibition in vivo at 7.5 mg/kg [7]: 93%
concentration at 144 h [8]: 3030 ng/mL
CL [30]: 2.5 mL/min/kg
Vd [31]: 0.69 L/kg
Cmax [32]: 1010 nM
IC50 (cells [33]): 2900 nM
concentration at 144 h [9]: 1970 ng/mL
Papp A→B [34]: 16 ×10⁻⁶ cm/s
inhibition in vivo at 7.5 mg/kg [10]: 84%
AUC [35]: 5.432 µM·h
concentration at 144 h [11]: 4450 ng/mL
AUC [36]: 38.009 µM·h
Tmax [37]: 1.67 h
bioavailability [38]: 76%
inhibition in vivo at 7.5 mg/kg [12]: 79%
inhibition in vivo at 7.5 mg/kg [13]: 88%
IC20 (hERG (KCNH2)): 20000 nM
fraction unbound [39]: 0.033
fraction unbound [40]: 0.026
Tmax [41]: 2.67 h
concentration at 144 h [14]: 4260 ng/mL
IC50 [1]: 476 nM
inhibition in vivo at 7.5 mg/kg [15]: 89%
IC50 (NFS-60): 18 nM
bioavailability [42]: 33%
concentration at 144 h [16]: 1310 ng/mL

FC(F)(F)c1ccc(CNc2ccc(Cc3c[nH]c4ncc(Cl)cc34)cn2)cn1 [PEXIDARTINIB]
IC50 (NFS-60): 33 nM

CCn1cc(-c2cc(Oc3ccc(-c4cnc(NC(C)C)[nH]c4=O)nc3C)ccn2)cn1
IC50 [1]: 2000 nM
IC50 (NFS-60): 13 nM

Cc1cc(-c2cnc(N3CCCC3)[nH]c2=O)ncc1Oc1ccnc(-c2cnn(C)c2)c1
IC50 [1]: 473 nM
IC50 (NFS-60): 16 nM

CCNc1ncc(-c2ccc(Oc3ccnc(-c4cnn(C)c4)c3)cn2)c(=O)[nH]1
IC50 [1]: 142 nM
IC50 (NFS-60): 97 nM

CCNc1ncc(-c2ccc(Oc3ccnc(-c4cnn(C)c4)c3)c(C)n2)c(=O)[nH]1
IC50 (cells [2]): 18 nM
IC50 [1]: 2100 nM
IC50 (NFS-60): 45 nM

Cc1nc(-c2cnc(N(C)C)[nH]c2=O)ccc1Oc1ccnc(-c2cnn(C)c2)c1
IC50 (cells [2]): 17 nM
IC50 [1]: > 3300 nM
IC50 (NFS-60): 716 nM

Cc1nc(-c2cnc(NC3CC3)[nH]c2=O)ccc1Oc1ccnc(-c2cnn(C)c2)c1
IC50 (cells [2]): 16 nM
IC50 [1]: > 3300 nM
IC50 (NFS-60): 55 nM

CN(C)CC(=O)N1CCC(c2ccc(NC(=O)c3nc(C#N)c[nH]3)c(C3=CCCCC3)c2)CC1
IC50 (cells [2]): 1.7 nM

Cc1nc(-c2cnc(NC3CCCC3)[nH]c2=O)ccc1Oc1ccnc(-c2cnn(C)c2)c1
IC50 [1]: 990 nM
IC50 (NFS-60): 2.6 nM

Cc1nc(-c2cnc(N3CCOCC3)[nH]c2=O)ccc1Oc1ccnc(-c2cnn(C)c2)c1
IC50 [1]: > 3300 nM
IC50 (NFS-60): 494 nM

Cc1nc(-c2cnc(NC3CCOCC3)[nH]c2=O)ccc1Oc1ccnc(-c2cnn(C)c2)c1
IC50 [1]: 3200 nM
IC50 (NFS-60): 413 nM
